Results on four compounds are retold here after US8673979B2, “Pharmaceutical compositions for headache, migraine, nausea and emesis” (Meditor Pharmaceuticals Ltd., priority 2000, dated 2014).

Series [1] deals with migraine attack. Put plainly: Case reports: oral tablets during migraine attacks. Format: in vivo, human. The note with it: for Side effects of past medical treatment: in vivo. Here is the method: Previous medical history: The subject is a smoking person first diagnosed as a classical migraine sufferer. Except for this they are completely healthy. Until two years ago the frequency of the migraine attacks was seven episodes per month. During the last two years they were treated with different kinds of recognized medications, with little or no success. Due to lack of response to the medical treatment during the migraine attacks, they tried alternative medicine treatments.
First attack: The subject suffered an acute migraine attack that lasted 72 hours. […] On the next day the subject received a single dose of 50 mg S-ethylisothiouronium diethylphosphate (2 tablets of 25 mg each). […] Between 10 to 15 minutes following administration the pain abruptly disappeared, as did all other symptoms, which appeared during the migraine attack.
Second attack: (three weeks later) The second migraine attack started during the night. On the next day the subject received once again 2 tablets of S-ethylisothiouronium diethylphosphate (50 mg). This time the intake of the tablets was during the peak of the migraine attack, after having a meal. Within 20 minutes the headache was relieved, the subject was able to focus their eyesight, and the photophobia disappeared. There was a weak headache but its intensity was reduced. Three hours later the subject took two more tablets of S-ethylisothiouronium diethylphosphate (50 mg). Within 15 minutes the migraine pain disappeared.
Third attack: (two and a half weeks after the second attack) the migraine attack started on their way to work. An hour after onset within the peak of the migraine attack, the subject received 2 tablets of S-ethylisothiouronium diethylphosphate (each of 25 mg). Drug was taken on empty stomach. Within 11 minutes the migraine symptoms disappeared.
Previous Medical History: The subject is a non-smoking person suffering from migraine attacks during the last two years. The frequency of the migraine attacks is once a month before the menstruation period. The pain appears in the temples, the sinuses and spreads down to the lower jaw. The duration of the photophobia was about 48 hours. So far the subject has not applied to receive specific medical treatment and used to take conventional analgesic drugs.
First attack: The onset of an acute migraine attack was in the morning and the symptoms grew stronger during the day. Just before noon time the subject received one tablet of S-ethylisothiouronium diethylphosphate (25 mg). […] Two hours later the subject received 2 more tablets of S-ethylisothiouronium diethylphosphate (each of 25 mg). Ten minutes later, the migraine pain disappeared.
Second attack: (about four weeks after the first attack) The migraine attack started as a consequence of very hot weather conditions. The intensity of this attack was greater than the usual migraine attacks. In the morning, the subject received 2 tablets of S-ethylisothiouronium diethylphosphate (50 mg) that were taken on an empty stomach. Within 20 minutes of S-ethylisothiouronium diethylphosphate intake there was a significant relief in migraine pain. Fifteen minutes later the pain disappeared. Later that day, during the afternoon, the subject suffered a weak pain. This time the subject self administered analgesic drugs and the pain disappeared.

In series [2] the test system is acute migraine attack (headache). Put plainly: Dose escalating exploratory study of Difetur tablets for acute migraine attack: headache reduction. The note with it: for Percentage of Patients Benefited by Treatment: headache grade 3-4 reduced to 1-2; for Time elapsed to Effect: time after ingestion to headache grade 1-2. It is filed as in vivo, human. Here is the method:
Dose escalating exploratory study on the safety and efficacy of Difetur tablets for the treatment of acute migraine attack.
(§1) The purpose of following exploratory protocol is to evaluate the safety and potential efficacy of Difetur (S-ethylisothiouronium diethylphosphate) tablets, in escalating doses starting at 10 mg and up to 50 mg, in the treatment of a single acute migraine attack. The study was designed as an open study in a selected population of subjects classified according to IHS criteria as suffering from migraine headaches of moderate or severe intensity, without aura. The study was conducted according to established international criteria for evaluating safety and efficacy for migraine treatment.
(§2) The study was performed as a 5 arm (groups) study. Only female patients classified as suffering from migraine without aura, according to IHS criteria are enrolled in the study. Each group consists of ten migraine patients who are treated during an acute migraine attack with Difetur tablets in a hospital setting. The initial dose of Difetur is 10 mg (1 tablet), consequently increasing to 20 mg, 30 mg, 40 mg, and 50 mg. The total number of patients to be enrolled is 50. The patients are hospitalized and followed for at least 4 hours to assess the safety, efficacy and possible side effects of Difetur.
In the first group of 10 patients each receive the initial dose of 10 mg of the study medication in a single tablet form. The dose of 50 mg is given as two tablets of 25 mg each. The tablets are individually packed in blister package, and have a label identifying the study medication as an investigational drug. Each dose in an escalating manner is given to 10 patients. The medication is swallowed with a glass of water under the supervision of an attending physician.
Headache severity is graded verbally in a 4-points scale: severe (grade 4), moderate (grade 3), mild (grade 2), or no pain (grade 1). Success is considered as a reduction of the headache severity from a severe or moderate headache (grade 3-4) to mild or no pain (grade 1-2).

For series [3], the system named is emesis during migraine attack. Briefly: Difetur tablets: emesis/nausea treatment during migraine attack. It is filed as in vivo, human. Here is the method:
as §1, §2
4.2 Secondary Efficacy Targets are the Reduction of Nausea, Vomiting and Light And Sound Sensitivity.
These are assigned for their presence, absence or disappearance as documented by the patient.

Series [4] concerns acute migraine attack (headache). Put plainly: Clinical trial of intravenous Difetur 10% solution in acute migraine attack. Format: in vivo, human. As to conditions: for Percentage of Patients Benefited by Treatment / Mean time elapsed to Effect: 0.6 mg/kg IV drip; for Mean time elapsed to Effect: to grade 1-0. As for the experimental part:
The purpose of following exploratory protocol was to evaluate the safety and potential efficacy of Difetur 10% solution for injection, in dose 0.6 mg/kg, in treatment of a single acute migraine attack. The study was designed as an open study in a selected population of subjects classified according to IHS criteria as suffering from migraine headaches of moderate or severe intensity, without aura. The study was conducted according to established international criteria for evaluating safety and efficacy for migraine treatment.
Difetur was presented as 10% (100 mg/mL) solution in 1 mL ampoules. It was dissolved in 100 mL of saline solution in intravenous device before treatment. The dose of Difetur was 0.6 mg/kg, given by intravenous drip during 10 min.
Headache severity was graded verbally on a 5-point scale: very severe (grade 4), severe (grade 3), moderate (grade 2), mild (grade 1), no pain (grade 0). Success was considered as reduction of the headache severity from very severe, severe or moderate (grade 4-2) to mild or no pain (grade 1-0).

For series [5] the following is noted: therapeutic doses; cited from earlier work.
Where [6] appears, read: Case 2, second attack, 50 mg oral, empty stomach.

As for `CN(C)CCc1c[nH]c2ccc(C[C@H]3COC(=O)N3)cc12` [Zomig, reference compound], the “Side effects of past medical treatment” value in series [1] was “various strong side effects”.
“S-ethylisothiouronium diethylphosphate [Difetur]”: the “Percentage of Patients Benefited by Treatment” value was 0% in series [2] (10 mg oral tablet); 70% in series [2] (20 mg oral); 70% in series [2] (30 mg oral); 87% in series [4] (headache grade 2); 100% in series [4] (headache grade 3); 100% in series [4] (headache grade 4). In addition, the “Time elapsed to Effect” value in series [2] (20 mg oral) worked out at 43 min; in series [2] (30 mg oral), 58 min. In addition, the Side effects result is on record as “no side effects” in series [2] (clinical trials, human subjects); “No side effects” in series [1] (Case 1, 50 mg oral); “No side effects” in series [1] (Case 2, 25 or 50 mg oral). For the same compound, the “Time to dramatic improvement” value in series [2] (in some cases) is no more than 15 min. In series [2] (oral, at peak of migraine attack), the “Time to reduction of migraine symptoms, on average” value is on record as “around 45 minutes”. Besides, the Time to relief in series [2] (treatment initiated at peak of migraine attack) is no more than 60 min. In addition, the “Percentage of Patients Affected by Treatment (positive anti-emetic response)” value is given as 70% in series [3] (10 mg oral), 100% in series [3] (20 mg oral) and 100% in series [3] (30 mg oral). The “Time elapsed until Effect (termination of emesis)” value in series [3] (10 mg oral) came to 28 min; in series [3] (20 mg oral), 25 min; in series [3] (30 mg oral), 29 min. In addition, the “Effect of low doses on nausea” value in series [3] (low doses ineffective or less effective on headache) was “effective at reducing or abolishing the symptoms of nausea”. Further, the “Mean time elapsed to Effect” value in series [4] (headache grade 2) amounted to 13.7 min; in series [4] (headache grade 3), 25.5 min; in series [4] (headache grade 4), 50 min. The “Headache relief, overall” value in series [4] (0.6 mg/kg IV, 13 patients, all except one) is given as “significant headache relief”. Also, the “Time to headache relief” value in series [1] (Case 1, second attack, 50 mg oral, after a meal) was no more than 20 min. The “Time to disappearance of migraine pain” value is no more than 15 min in series [1] (Case 1, second attack, further 50 mg three hours later) and “Ten” in series [1] (Case 2, first attack, 2 more 25 mg tablets two hours later). The “Time to disappearance of migraine symptoms” value in series [1] (Case 1, third attack, 50 mg oral, empty stomach) was no more than 11 min. The “Frequency of migraine attacks after treatment” value in series [1] (Case 1, previously seven episodes per month) is given as “about three”. Also, the “Change in migraine pain” value in series [1] (Case 2, first attack, one 25 mg tablet) is listed as “No substantial change”. For the same compound, the “Time from significant relief to disappearance of pain” value in series [1] (setting [6]) is on record as “Fifteen”. In addition, the “Time to significant relief in migraine pain” value in series [1] (setting [6]) was no more than 20 min. Besides, the “Time to elimination of migraine symptoms” value in series [1] (both case reports, at peak of attack) is recorded as “less than 20 minutes”. Moreover, the “Headache recurrence (rebound/relapse)” value in series [1] (case reports) is given as “not observed”.
For the compound `CN1C[C@H](C(=O)N[C@]2(C)O[C@@]3(O)[C@@H]4CCCN4C(=O)[C@H](Cc4ccccc4)N3C2=O)C=C2c3cccc4[nH]cc(c34)C[C@H]21` [ergotamine], the “Patients with nausea and vomiting” value in series [5] is recorded as “up to 10%”.
Regarding `CNS(=O)(=O)Cc1ccc2[nH]cc(CCN(C)C)c2c1` [Imitrex, Sumatriptan succinate, reference compound], in series [1], the “Side effects of past medical treatment” value was “various strong side effects”.
